Assay results as given in paper PMC8777952, “Lignin Nanoparticles Deliver Novel Thymine Biomimetic Photo-Adducts with Antimelanoma Activity” (International Journal of Molecular Sciences, 2022).

Columns and labels:
[1] = parameters: method as in PMID 25075037; details: commercial antitumor agents; cited from earlier work
[2] = UV shielding (photo-protective) capacity of loaded LNPs; assay type: physicochemical; details: after 15 min of irradiation, loaded in LNPs versus free compound
Method: The UV shielding capacity of LNPs allows them to protect bioactive compounds from premature deactivation. To evaluate the photo-protective role of LNPs we studied the irradiation of LNPs/4a, LNPs/6a, LNPs/7a, and LNPs/8a as a selected representative example of thymine dimers. The samples were suspended in DMI/water mixture (2:1 v/v, 1.0 mL) and treated with UV under previously reported experimental conditions. At scheduled times (5, 10, and 15 min), aliquots (0.2 mL) of the suspension were withdrawn and analyzed. An excess of DMI (1.0 mL) was added to disaggregate LNPs, followed by filtration of residual lignin. The residual concentrations of 4a, 6a, 7a, and 8a (expressed as % with respect to the starting material) were evaluated at λmax 271 nm. Data were compared with 4a, 6a, 7a, and 8a after irradiation under similar experimental conditions (Figure 3).
LNPs/4a were prepared following the standard procedure previously described. Typically, LNPs/4a (1.0 mg) suspended in DMI/water mixture (2:1 ratio, 1.0 mL) were deposited on a glass lens and irradiated with Haerus source (250 Watt, the lamp was at 20.0 cm distance). […] The photo-protection capacity of LNPs was determined by measuring the decrease in absorbance (λmax 271 nm) of recovered 4a compared with free reference (Varian UVCary-50). […]

[3] = MTT cell viability assay, FB789 reference cell line; assay type: cell-based; details: FB789 cells (normal human fibroblast)
Source text: (§1) Preliminary sunscreen data of 4a-d have been reported focusing on SKH1-E cell line, human abdominal skin explants, and in vivo hairless mouse models. Data for photo-adducts 6a-d, 7a-d, and 8a-d are not available. Thymine photo-adducts are well recognized as responsible for the activation of different molecular pathways involved in the cellular response to UV damage, including DNA repair system, melanogenesis, and Nucleotide Excision Repair (NER) system. In addition, TOP1ccs trapped near photo-adducts activates BER and remove (6-4)PPs in NER-deficient cells. TOP1 is highly expressed in malignant tumors, including carcinomas of the colon, prostate, ovary, lung, and melanoma. […] For this reason, we decided to study the antimelanoma activity of 4a-d, 6a-d, and 8a-d against two melanoma cancer cell lines, namely SK-MEL28 and RPMI7951 bearing a different genetic background. The antimelanoma activity was determined using the MTT cell viability assay, following the absorbance change (λmax 570 nm and 630 nm). The human FB789 cell line was used as reference. The CC50 (cytotoxic concentration that causes death of 50% of viable cells), IC50 (minimum concentration inhibiting 50% of the melanoma cells), and Selective Index (SI) (ratio between IC50 of reference cell line versus melanoma cell line) values are reported in Table 5. […] Compounds 4a-d were ineffective against melanoma cell lines. […] 234. Next, the antimelanoma activity of compounds 8a and 8b was evaluated after loading inside LNPs.
(§2) FB789 was grown in DMEM/F10, RPMI7951 melanoma cancer cells were grown in Minimal Essential Medium (MEM), while SK-Mel 28 melanoma cancer cells were grown in Dulbecco’s Modified Eagle Medium (DMEM). All culture media were supplemented with 10% Fetal Bovine Serum (FBS) plus 1.0 mM glutamine (40 µg/mL). The antimelanoma activity of 4a-d, 6a-d, and 8a-d was evaluated by MTT viability assay according to reference. Briefly, aliquots of the appropriate compound ([…]) were solubilized in dimethyl sulfoxide (one drops, DMSO) and administered to the selected cell line. After incubation for 3 h at 37 °C with MTT (0.5 mg/mL) the supernatant was removed, and […] of lysis solution (10% SDS and 0.6% acetic acid) was added to dissolve the formazan crystals. Optical density detection was performed by DTX880 Multimode Detector (Beckman Coulter) with 630 nm (background) and 570 nm filters. The percentage of cell viability was calculated as follows: % cell viability = 100–% cell cytotoxicity. The experiments for the evaluation of the antimelanoma activity of LNPs/8a and LNPs/8b were performed in a similar way using the appropriate amount of nanoparticles containing 1.0 mmol of the active compound and analyzing the antimelanoma activity at three different release times (2, 4, and 24 h).

SK-Mel28 = experiment: MTT cell viability assay, SK-Mel28 melanoma cells; assay type: cell-based, human; details: for SI (SKMel28): 24 h, ratio reference cell line FB789 versus melanoma cell line; for IC50: Homo sapiens, SK-MEL-28, 24 h
Source text: as §1, §2

RPMI7951 = experiment: MTT cell viability assay, RPMI7951 melanoma cells; assay type: cell-based, human; details: for SI (RPMI7951): 24 h, ratio reference cell line FB789 versus melanoma cell line; for IC50: Homo sapiens, RPMI-7951, 24 h
Source text: as §1, §2

[4] = Loading capacity and loading efficiency of lignin nanoparticles; assay type: physicochemical
Method: A further increase in the secondary solvent afforded low stable colloidal LNPs (18 mL; Table 3, entry 4) and aggregates (24 mL; Table 3, entry 5). Finally, LNPs were not formed after the addition of high volumes of deionized water (Table 3, entries 6–8). The optimal conditions affording stable colloidal LNPs (1:5 w/w and 1:10 w/w 4a/KL ratio, 3.0 mL of DMI/water 2:1 v/v, and 6.0 mL of secondary solvent) were successively applied for the encapsulation of 4b-d, and of the most abundant photo-adducts 6a-d and 8a-d. The loading capacity (LC) and loading efficiency (LE) Equations (1) and (2) were measured as a function of the concentration of the encapsulated compound [55, 56, 57, 58].
LNPs were separated by centrifugation, and the supernatant was analyzed by HPLC at λmax value of the encapsulated compound (271 nm for 4a-d, 191 nm for 6a-d, and 192 nm for 8a-d, respectively). Irrespective from the experimental conditions, the highest LE and LC were obtained in the presence of the highest value of the compound/KL ratio (compound/KL ratio of 1:5). […] (1) LC %:weight of starting drug−weight of unloaded drug/weight of lignin (2) LE %:weight of starting drug−weight of unloaded drug/weight of starting drug
LNPs were produced and loaded by the nanoprecipitation technique. The appropriate compound (3 mg) was dissolved in DMI/water (3.0 mL) at 50 °C under gentle stirring conditions followed by the addition of KL (15 mg). The fast addition of deionized water (6.0 mL) instantaneously produced LNPs. LNPs were then recovered by centrifugation (7500 rpm), washed with deionized water (10 mL) for 3 times, and lyophilized. The loading capacity (LC) and loading efficiency (LE) were evaluated by UHPLC analysis.

[5] = Cumulative (kinetic) release from lignin nanoparticles by dialysis; assay type: physicochemical; details: pH 5.5, first 4 h, 37.5 °C
Method: The cumulative releasing capacity of LNPs was evaluated as previously reported in the literature and normalized with respect to the total amount of entrapped compound. In a typical procedure, the appropriate LNPs (7.5 mg) were suspended in water (3.0 mL) and dialyzed against deionized water (60.0 mL) at two selected pH values (pH 7.4 and 5.5, respectively) at 37.5 °C for 24 h. The amount of released compound was measured by UV–vis spectrophotometry at the optimal λmax value for each compound by sampling the dialysis solution at appropriate time intervals (Figure 4). The withdrawn volume was replaced by corresponding deionized water in order to maintain constant the volume of the solution (Section 3).
LNPs (7.5 mg, compound/KL 1:5 ratio) were suspended in water (3.0 mL), placed in a dialysis membrane, and immersed in PBS buffer (60 mL) at two selected pH values (7.4 and 5.5, respectively) at 37.5 °C for 24 h. A similar procedure was applied solubilizing LNPs/8b (7.5 mg) water (3.0 mL), followed by dialysis against the culture medium DMEM (60 mL). […] The quantification of released compound was conducted by UV–Vis spectrophotometry at the λmax characteristic for each type of compound (271 nm for 4a-d, and 191 and 192 nm for 6a-d and 8a-d, respectively) using semi-micro cuvettes. […]

SMILES	photo-protection capacity [2] [%]	IC50 (SK-Mel28) [µM]	IC50 (RPMI7951) [µM]	LC% ([4]; Compd/KL ratio 1:5) [%]	LE% ([4]; Compd/KL ratio 1:5) [%]	LC% ([4]; Compd/KL ratio 1:10) [%]	LE% ([4]; Compd/KL ratio 1:10) [%]	cumulative release [5] [%]	SI [1]	CC50 at 24 h [3] [µM]	SI (SKMel28) (SK-Mel28)	SI (RPMI7951) (RPMI7951)
CC[C@@]1(O)C(=O)OCc2c1cc1n(c2=O)Cc2cc3ccccc3nc2-1 [camptothecin]	–	–	–	–	–	–	–	–	88.3	–	–	–
Cc1cn2c(=O)nc1C1N(CCC2)C(=O)NC(=O)C1(C)O (centres unmarked) [Compound 7a, 4-hydroxy-4,6-dimethyl-4,4a,10,11-tetrahydro-1H,9H-5,8-(azenomethano)pyrimido[1,6-e][1,5]diazonine-1,3,13(2H)-trione]	~40	–	–	–	–	–	–	–	–	–	–	–
CC12C(=O)NC(=O)N3CCCN4C(=O)NC(=O)C1(C)C4C32 (centres unmarked) [Compound 6a, 6a,6b-dimethylhexahydro-1H-3a,5,8,9a-tetraazacyclohepta[def]biphenylene 4,6,7,9(5H,8H)-tetraone]	–	85.2 ± 0.9	138 ± 2.1	6.93	37.40	6.81	41.12	–	–	375 ± 28.2	4.39	2.7
CC12C(=O)NC(=O)N3CCCCCN4C(=O)NC(=O)C1(C)C4C32 (centres unmarked) [Compound 6c, 8a,8b-dimethyloctahydro-1H-5a,7,10,11a-tetraazacyclonona[def]biphenylene-6,8,9,11(7H,10H)-tetraone]	–	282 ± 4.4	195 ± 3.8	11.46	51.12	10.48	47.86	–	–	234 ± 7.3	0.83	1.2
O=c1[nH]cc(F)c(=O)[nH]1 [Compound 5-FU, 5-fluro uracil]	–	–	–	–	–	–	–	–	55.6	–	–	–
COc1cccc2c1C(=O)c1c(O)c3c(c(O)c1C2=O)C[C@@](O)(C(=O)CO)C[C@@H]3O[C@H]1C[C@H](N)[C@H](O)[C@H](C)O1 [doxorubicin]	–	–	–	–	–	–	–	–	26.0	–	–	–
CC12C(=O)NC(=O)N3CCCCN4C(=O)NC(=O)C1(C)C4C32 (centres unmarked) [Compound 6b, 7a,7b-dimethyloctahydro-4a,6,9,10a-tetraazacycloocta[def]biphenylene-5,7,8,10(6H,9H)-tetraone]	–	17.9 ± 1.9	77.8 ± 1.8	9.59	50.94	9.33	50.74	–	–	109 ± 5.4	6.09	1.4
CC12C(=O)NC(=O)N3CCCCCCN4C(=O)NC(=O)C1(C)C4C32 (centres unmarked) [Compound 6d, 9a,9b-dimethyldecahydro-6a,8,11,12a-tetraazacyclodeca[def]biphenylene-7,9,10,12(8H,11H)-tetraone]	–	87.9 ± 1.9	234.9 ± 1.6	13.22	72.61	11.54	71.98	–	–	377 ± 14.8	4.3	1.6

Now from value to molecule, other results behind:

photo-protection capacity [2] [%]	IC50 (SK-Mel28) [µM]	IC50 (RPMI7951) [µM]	LC% ([4]; Compd/KL ratio 1:5) [%]	LE% ([4]; Compd/KL ratio 1:5) [%]	LC% ([4]; Compd/KL ratio 1:10) [%]	LE% ([4]; Compd/KL ratio 1:10) [%]	cumulative release [5] [%]	SMILES	SI [1]	CC50 at 24 h [3] [µM]	SI (SKMel28) (SK-Mel28)	SI (RPMI7951) (RPMI7951)
–	304.3 ± 2.4	543.1 ± 2.7	5.59	49.94	4.93	49.26	–	Cc1cn(CCCn2cc(C)c(=O)[nH]c2=O)c(=O)[nH]c1=O [Compound 4a, N1,N1′-(propane-1,3-diyl)bis-thymine]	–	1450 ± 56.2	4.7	2.7
–	169 ± 4.6	343 ± 7.6	14.37	71.85	7.14	71.41	71	Cc1cn(CCCCCCn2cc(C)c(=O)[nH]c2=O)c(=O)[nH]c1=O [Compound 4d, N1,N1′-(hexane-1,6-diyl)bis-thymine]	–	392 ± 5.2	2.3	1.14
–	169 ± 4.6	12400	10.38	51.91	4.24	52.40	–	Cc1cn(CCCCn2cc(C)c(=O)[nH]c2=O)c(=O)[nH]c1=O [Compound 4b, N1,N1′-(butane-1,4-diyl)bis-thymine]	–	839 ± 10.9	4.9	0.07
–	292.9 ± 2.5	357 ± 5.1	12.52	69.70	6.97	62.59	–	Cc1cn(CCCCCn2cc(C)c(=O)[nH]c2=O)c(=O)[nH]c1=O [Compound 4c, N1,N1′-(pentane-1,5-diyl)bis-thymine]	–	1660 ± 36.3	5.7	4.6
